Values of other authors, collected in patent US20050260613A1 (priority 2003, published 2005).

Tested on: AD patients
Details: presence of the ApoE4 allele

Nc1c2c(nc3ccccc13)CCCC2 [tacrine]
response to treatment in presence of the ApoE4 polymorphism: reduced response
